The text below walks through data of EP1206474B1, “SULFONYLPHENYLPYRAZOLE COMPOUNDS USEFUL AS COX-2 INHIBITORS” (ABBOTT LABORATORIES, priority 1999, dated 2001).

For assay [1], the target named is T1, recombinant human Cox-1 (r-hu Cox-1) (Homo sapiens, UniProt P23219).
T1 construct: made in house; host or cells: baculovirus/Sf9 insect cells (microsomes)
As to the kind of experiment: Recombinant human PGHS-1 (r-hu Cox-1) enzyme assay, PGE2 by EIA. Type of assay: biochemical. As to conditions: read-out: r-hu COX1 percent inhibition. As to the method:
(§1) To compare the mean responses of the treatment groups, analysis of variance was applied. Percent inhibition values were determined by comparing the individual treatment mean values to the mean of the control group. Linear regression was used to estimate IC50's/ED50's in appropriate assays.
(§2) EIA reagents for prostaglandin determination were purchased from Perseptive Diagnostics, (Cambridge, MA). Prostaglandin E2 (PGE2) levels in lavage fluids were determined after the samples were dried under nitrogen and reconstituted with assay buffer. PGE2 levels in enzyme assays or cell culture media were measured against standards prepared in the same milieu. The immunoassays were conducted as recommended by the manufacturer. The EIA was conducted in 96 well microtiter plates (Nunc Roskilde, Denmark) and optical density was measured using a microplate reader (Vmax, Molecular Devices Corp., Menlo Park, CA).
(§3) Inhibition of prostaglandin biosynthesis in vitro was evaluated using recombinant human Cox-1 (r-hu Cox-1) and Cox-2 (r-hu Cox-2) enzyme assays. […] The reaction was allowed to run for 2.5 minutes at room temperature prior to quenching with HCl and neutralization with NaOH. PGE2 production in the presence and absence of the drug was determined by EIA analysis. The EIA was conducted in 96 well microtiter plates (Nunc Roskilde, Denmark) and optical density was measured using a microplate reader (Vmax, Molecular Devices Corp., Menlo Park, CA). EIA reagents for prostaglandin determination were purchased from Perseptive Diagnostics (Cambridge, MA). PGE2 levels were measured against standards prepared in the same milieu. The immunoassays were conducted as recommended by the manufacturer. The compounds are designated by the Example Number. […] Values for Cox-2 inhibition that are parenthetical indicate IC50 values.

For assay [2], the target named is T2, recombinant human Cox-2 (r-hu Cox-2) (Homo sapiens, UniProt P35354).
T2 construct: made in house; host or cells: baculovirus/Sf9 insect cells (microsomes)
T2 sequence (P35354 18-604): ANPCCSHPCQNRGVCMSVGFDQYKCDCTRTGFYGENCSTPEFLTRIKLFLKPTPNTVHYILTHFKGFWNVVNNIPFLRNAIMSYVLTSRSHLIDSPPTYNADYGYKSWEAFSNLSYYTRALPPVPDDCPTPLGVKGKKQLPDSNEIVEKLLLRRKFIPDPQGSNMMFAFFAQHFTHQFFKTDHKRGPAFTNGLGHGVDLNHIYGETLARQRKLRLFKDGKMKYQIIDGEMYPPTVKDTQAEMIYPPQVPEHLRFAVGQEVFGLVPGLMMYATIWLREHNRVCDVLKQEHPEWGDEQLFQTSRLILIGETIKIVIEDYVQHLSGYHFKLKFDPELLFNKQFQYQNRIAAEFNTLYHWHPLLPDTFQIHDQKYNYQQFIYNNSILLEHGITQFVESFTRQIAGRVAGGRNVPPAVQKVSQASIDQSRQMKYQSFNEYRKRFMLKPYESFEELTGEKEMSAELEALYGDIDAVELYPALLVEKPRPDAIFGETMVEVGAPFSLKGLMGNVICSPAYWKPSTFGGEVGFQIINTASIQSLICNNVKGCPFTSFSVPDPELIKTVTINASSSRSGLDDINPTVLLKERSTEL
Description: Recombinant human PGHS-2 (r-hu Cox-2) enzyme assay, PGE2 by EIA. Type of assay: biochemical. As to conditions: for inhibition at 0.1 µM: at 100 nM; for inhibition at 0.1 µM / inhibition at 10 µM: read-out: r-hu COX2 percent inhibition; for IC50: parenthetical values indicate IC50, read-out: r-hu COX2 IC50 (parenthetical values); for inhibition at 10 µM: at 10000 nM. How it is done: as §1, §2, §3

The subject of assay [3] is Human amnionic WISH cells. As to the kind of experiment: IL-1β induced PGE2 production in WISH cells. The assay is classed as cell-based. The settings on record: IL-1β induced PGE2, 18 hour incubation; for IC50: parenthetical value, read-out: WISH (parenthetical value, IC50 by analogy with Table 1); for inhibition at 1 µM: at 1000 nM. How it is done: as §2
Human amnionic WISH cells were grown to 80% confluence in 48 well plates. Following removal of the growth medium and two washings with Gey's Balanced Salt Solution, 5 ng IL-1β/ml (UBI, Lake Placid, NY) was added to the cells with or without test compound in DMSO (0.01% v/v) in Neuman-Tytell Serumless Medium (GIBCO, Grand Island, NY). Following an 18 hour incubation to allow for the maximal induction of PGHS-2, the conditioned medium was removed and assayed for PGE2 content by EIA analysis as described above.
WISH cell values indicate percent inhibition at the particular nanomolar dose level.

In assay [4] the test system is male adrenalectomized Sprague-Dawley rats. Description: Rat carrageenan pleural inflammation (CIP) model. The assay is classed as in vivo. The settings on record: 10 milligrams per kilogram body weight, oral, 30 minutes prior to carrageenan; lavage four hours later; inhibition of prostaglandin biosynthesis. As to the method:
For oral administration, test compounds were suspended on the day of use in 100% polyethyleneglycol (PEG 400) with a motorized homogenizer equipped with a Teflon-coated pestle (TRI-R Instrument, Jamaica, NY).
as §1, §2
Pleural inflammation was induced in male adrenalectomized Sprague-Dawley rats following the method of Vinegar et al., Fed. Proc. 1976, 35, 2447-2456. […] Eicosanoids were determined by EIA as described above. […]

The mark [5] stands for this setting: Homo sapiens, read-out: WISH percent inhibition.

T1 sequence (P23219 24-599): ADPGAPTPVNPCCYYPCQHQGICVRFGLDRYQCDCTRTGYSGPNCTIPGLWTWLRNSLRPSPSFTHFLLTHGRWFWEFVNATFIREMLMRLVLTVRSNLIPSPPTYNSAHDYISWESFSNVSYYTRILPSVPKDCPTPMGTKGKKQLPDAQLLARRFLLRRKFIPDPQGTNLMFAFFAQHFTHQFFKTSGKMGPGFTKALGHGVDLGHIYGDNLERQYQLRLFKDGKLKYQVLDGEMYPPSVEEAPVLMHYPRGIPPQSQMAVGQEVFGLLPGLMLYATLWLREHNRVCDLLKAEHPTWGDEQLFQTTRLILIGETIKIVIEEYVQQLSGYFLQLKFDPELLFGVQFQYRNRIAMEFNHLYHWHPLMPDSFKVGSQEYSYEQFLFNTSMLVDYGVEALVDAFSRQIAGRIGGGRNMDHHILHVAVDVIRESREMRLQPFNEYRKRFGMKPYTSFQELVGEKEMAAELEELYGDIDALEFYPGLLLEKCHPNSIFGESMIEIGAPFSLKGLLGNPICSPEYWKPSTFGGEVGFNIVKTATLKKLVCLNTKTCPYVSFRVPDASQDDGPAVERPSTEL

The term inhibition denotes how much of the control response was suppressed. Turning to `CS(=O)(=O)c1ccc(-c2nn3c4c(oc3c2-c2ccc(F)cc2)CCCC4)cc1` [Example 42, 3-(4-Fluorophenyl)-2-(4-(methylsulphonyl)phenyl)-5,6,7,8-tetrahydropyrazolo[5,1-b][1,3]benzoxazole], in assay [1], the inhibition at 100 µM was 23%. Moreover, in assay [2], the inhibition at 0.1 µM turned out to be 86%. Moreover, the WISH percent inhibition in assay [3] (at 0.01 (nM)) worked out at 37%; in assay [3] (at 0.1 (nM)), 81%.

With `Cc1c(C#N)oc2c(-c3ccc(F)cc3)c(-c3ccc(S(N)(=O)=O)cc3)nn12` [Example 59, 6-(4-(Aminosulphonyl)phenyl)-2-cyano-7-(4-Fluorophenyl)-3-methyl-pyrazolo[5,1-b][1,3]oxazole], the inhibition at 100 µM in assay [1] came to 96%. In addition, in assay [2], the inhibition at 0.1 µM stood at 51%.

For orientation: IC50 means the point on the concentration scale where inhibition reaches its midpoint. As for `CCc1coc2c(-c3ccc(F)cc3)c(-c3ccc(S(N)(=O)=O)cc3)nn12` [Example 62, 6-(4-(aminosulphonyl)phenyl)-3-Ethyl-7-(4-fluorophenyl)pyrazolo[5,1-b][1,3]oxazole], the inhibition at 100 µM in assay [1] is 91%. The IC50 in assay [2] came to 2 nM; in assay [3] (Homo sapiens), 0.21 nM.

With `Cc1c(C#N)oc2c(-c3ccc(F)cc3)c(-c3ccc(S(C)(=O)=O)cc3)nn12` [Example 54, 2-Cyano-7-(4-fluorophenyl)-3-methyl-6-(4-(methylsulphonyl)phenyl)pyrazolo[5,1-b][1,3]oxazole], in assay [3] (Homo sapiens), the IC50 stood at 0.2 nM.

As to `CS(=O)(=O)c1ccc(-c2nn3c(c2-c2ccc(F)cc2)OCCCC3)cc1` [Example 2, 3-(4-Fluorophenyl)-2-(4-(methylsulphonyl)phenyl)-5,6,7,8-tetrahydropyrazolo[5,1-b][1,3]oxazepine], in assay [1], the inhibition at 100 µM turned out to be 9%. For the same molecule, in assay [2], the inhibition at 10 µM is 57%.

Turning to `CS(=O)(=O)c1ccc(-c2nn3c(c2-c2ccc(F)cc2)OCC=CC3)cc1` [Example 4, 3-(4-Fluorophenyl)-2-(4-methylsulponylphenyl) -5,8-dihydropyrazolo[5,1-b][1,3]oxazepine], in assay [1], the inhibition at 100 µM is 12%. Besides, in assay [2], the inhibition at 10 µM amounted to 62%.

For `CS(=O)(=O)c1ccc(-c2nn3c(c2-c2ccc(F)cc2)OCc2ccccc2-3)cc1` [Example 6, 3-(4-Fluorophenyl)-2-(4-(methylsulphonyl)phenyl)-5H-pyrazolo[1,5-b][1,3]-benzoxazine], in assay [1], the inhibition at 100 µM stood at 25%. Also, the inhibition at 0.1 µM in assay [2] is 82%.

As for `CS(=O)(=O)c1ccc(-c2nn3c(c2-c2ccc(F)cc2)OCC3)cc1` [Example 5, 7-(4-Fluorophenyl)-6-(4-(methylsulphonyl)phenyl)-2,3-dihydropyrazolo[5,1-b][1,3]oxazole], the inhibition at 1 µM in assay [3] (setting [5]) came to 33%.

`CS(=O)(=O)c1ccc(-c2nn3c(C4C5CC6CC(C5)CC4C6)coc3c2-c2ccc(F)cc2)cc1` (stereo not shown) [Example 39, 3-(2-Adamantyl)-7-(4-fluorophenyl)-6-(4-(methylsulphonyl)phenyl)pyrazolo[5,1-b][1,3]oxazole]: the results for the WISH percent inhibition in assay [3] (at 0.1 (nM)) and in assay [3] (at 1 (nM)) were 38% and 95%, respectively.

In the case of `CC=CC(=O)c1oc2c(-c3ccc(F)cc3)c(-c3ccc(S(C)(=O)=O)cc3)nn2c1C` [Example 58, 1-[7-(4-Fluorophenyl)-3-methyl-6-(4-(methylsulphonyl)phenyl)pyrazolo[5,1-b][1,3]oxazol-2-yl]but-2-en-1-one], in assay [3] (at 0.1 (nM)), the WISH percent inhibition is given as 84 @ 0.1%.

For `CS(=O)(=O)c1ccc(-c2nn3c(c2-c2ccc(F)cc2)OCc2ccccc2C3)cc1` [Example 3], the inhibition at 100 µM in assay [1] came to 20%. In addition, the IC50 in assay [2] worked out at 90 nM. Besides, the inhibition at 0.01 µM in assay [3] (Homo sapiens, at 10 nM, read-out: WISH percent inhibition) turned out to be 43%. Besides, the “CIP Inh @10mpk” value in assay [4] came to 3%.

As for `CS(=O)(=O)c1ccc(-c2nn3c(c2-c2ccc(F)cc2)OCCC3)cc1` [Example 1, 3-(4-Fluorophenyl)-2-(4-(methylsulphonyl)phenyl)-6,7-dihydro-5H-pyrazolo[5,1-b][1,3]oxazine], in assay [1], the inhibition at 100 µM stood at 4%. For the same molecule, in assay [2], the IC50 was 720 nM. Also, the inhibition at 1 µM in assay [3] (setting [5]) turned out to be 19%.

For `CC(C)(C)c1coc2c(-c3ccc(F)cc3)c(-c3ccc(S(N)(=O)=O)cc3)nn12` [Example 55], the inhibition at 10 µM in assay [1] (at 10 µM) turned out to be 99%. For the same molecule, in assay [2], the inhibition at 0.1 µM was 88%.

`CS(=O)(=O)c1ccc(-c2nn3c(-c4ccccc4)coc3c2-c2ccc(F)cc2)cc1` [Example 37, 7-(4-Fluorophenyl)-6-(4-(methylsulphonyl)phenyl)-3-phenylpyrazolo[5,1-b][1,3]oxazole]: the “CIP Inh @10mpk” value in assay [4] is listed as 0%.

As to `Cc1oc2c(-c3ccc(F)cc3)c(-c3ccc(S(C)(=O)=O)cc3)nn2c1-c1ccccc1` [Example 41, 7-(4-Fluorophenyl)-2-methyl-6-(4-(methylsulphonyl)phenyl)-3-phenylpyrazolo[5,1-b][1,3]oxazole], the WISH percent inhibition in assay [3] (at 0.1 (nM)) is given as 33%; in assay [3] (at 1 (nM)) it was 52%.

As to `CCc1coc2c(-c3ccc(F)cc3)c(-c3ccc(S(C)(=O)=O)cc3)nn12` [Example 61, 3-Ethyl-7-(4-fluorophenyl)-6-(4-(methylsulphonyl)phenyl)pyrazolo[5,1-b][1,3]oxazole], in assay [1], the inhibition at 100 µM was found to be 23%. Further, in assay [2], the inhibition at 0.1 µM was found to be 94%.
